Assay results from US11572369B2, “Bicyclic pyridine compositions and methods of using the same for cancer therapy” (UNIVERSITY OF SOUTH CAROLINA, priority 2019, dated 2023).

Legend:
Experiment in all cases: KINOMEscan
Format in all cases: binding
Conditions in all cases: 2000 nM
[1] = target: ABL1(H396P)-phosphorylated (Homo sapiens, UniProt P00519, H396P)
BRK = target: T1, BRK (Homo sapiens, UniProt Q13882)
T1 construct: DNA label (for qPCR read-out); purchased KINOMEscan scanMAX panel (DiscoveRx)

CHEK2 = target: T2, CHEK2 (Homo sapiens, UniProt O96017)
T2 construct: DNA label (for qPCR read-out); purchased DiscoveRx (KINOMEscan scanMAX service)

CSK = target: T3, CSK (Homo sapiens, UniProt P41240)
T3 construct: DNA label; purchased DiscoveRx (KINOMEscan scanMAX panel)

CSNK2A1 = target: T4, CSNK2A1 (Homo sapiens, UniProt P68400)
T4 construct: DNA label; purchased DiscoveRx (KINOMEscan scanMAX panel)

EGFR(E746-A750del) = target: T5, EGFR(E746-A750del) (Homo sapiens, UniProt P00533, DEL746-750)
T5 construct: purchased DiscoveRx (KINOMEscan scanMAX panel)

EIF2AK1 = target: T6, EIF2AK1 (Homo sapiens, UniProt Q9BQI3)
T6 construct: purchased DiscoveRx (KINOMEscan scanMAX panel)

EPHA2 = target: T7, EPHA2 (Homo sapiens, UniProt P29317)
T7 construct: purchased DiscoveRx (KINOMEscan scanMAX panel)

EPHB6 = target: T8, EPHB6 (Homo sapiens, UniProt O15197)
T8 construct: DNA label (qPCR read-out); purchased DiscoveRx (KINOMEscan ScanMAX panel)
T8 sequence (O15197 32-1021): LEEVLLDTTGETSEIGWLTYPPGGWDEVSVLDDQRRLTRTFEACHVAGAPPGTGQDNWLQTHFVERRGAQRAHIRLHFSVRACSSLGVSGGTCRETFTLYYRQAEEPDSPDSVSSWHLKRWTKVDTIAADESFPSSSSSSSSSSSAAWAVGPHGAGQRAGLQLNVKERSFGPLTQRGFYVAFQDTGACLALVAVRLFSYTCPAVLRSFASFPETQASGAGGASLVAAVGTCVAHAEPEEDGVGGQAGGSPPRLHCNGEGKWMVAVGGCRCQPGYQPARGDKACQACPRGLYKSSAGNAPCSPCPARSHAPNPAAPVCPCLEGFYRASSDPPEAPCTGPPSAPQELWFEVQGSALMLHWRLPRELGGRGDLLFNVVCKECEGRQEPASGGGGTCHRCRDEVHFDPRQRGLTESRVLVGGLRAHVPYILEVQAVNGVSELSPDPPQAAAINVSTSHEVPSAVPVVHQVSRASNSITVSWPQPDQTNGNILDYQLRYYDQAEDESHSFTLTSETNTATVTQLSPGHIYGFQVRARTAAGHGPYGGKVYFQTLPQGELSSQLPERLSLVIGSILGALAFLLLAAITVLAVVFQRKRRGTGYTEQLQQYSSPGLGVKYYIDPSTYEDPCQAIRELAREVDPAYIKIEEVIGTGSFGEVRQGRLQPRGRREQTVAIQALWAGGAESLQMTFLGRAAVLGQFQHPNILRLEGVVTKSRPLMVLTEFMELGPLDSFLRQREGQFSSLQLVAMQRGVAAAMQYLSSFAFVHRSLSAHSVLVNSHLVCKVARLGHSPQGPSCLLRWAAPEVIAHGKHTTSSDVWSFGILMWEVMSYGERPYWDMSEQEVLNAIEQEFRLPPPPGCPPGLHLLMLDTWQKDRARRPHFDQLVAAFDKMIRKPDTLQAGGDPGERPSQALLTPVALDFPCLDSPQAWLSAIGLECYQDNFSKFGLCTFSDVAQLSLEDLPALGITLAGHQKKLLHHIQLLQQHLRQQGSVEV

FLT4 = target: T9, FLT4 (Homo sapiens, UniProt P35916)
T9 construct: purchased KINOMEscan (DiscoveRx)
T9 sequence (P35916 25-1363): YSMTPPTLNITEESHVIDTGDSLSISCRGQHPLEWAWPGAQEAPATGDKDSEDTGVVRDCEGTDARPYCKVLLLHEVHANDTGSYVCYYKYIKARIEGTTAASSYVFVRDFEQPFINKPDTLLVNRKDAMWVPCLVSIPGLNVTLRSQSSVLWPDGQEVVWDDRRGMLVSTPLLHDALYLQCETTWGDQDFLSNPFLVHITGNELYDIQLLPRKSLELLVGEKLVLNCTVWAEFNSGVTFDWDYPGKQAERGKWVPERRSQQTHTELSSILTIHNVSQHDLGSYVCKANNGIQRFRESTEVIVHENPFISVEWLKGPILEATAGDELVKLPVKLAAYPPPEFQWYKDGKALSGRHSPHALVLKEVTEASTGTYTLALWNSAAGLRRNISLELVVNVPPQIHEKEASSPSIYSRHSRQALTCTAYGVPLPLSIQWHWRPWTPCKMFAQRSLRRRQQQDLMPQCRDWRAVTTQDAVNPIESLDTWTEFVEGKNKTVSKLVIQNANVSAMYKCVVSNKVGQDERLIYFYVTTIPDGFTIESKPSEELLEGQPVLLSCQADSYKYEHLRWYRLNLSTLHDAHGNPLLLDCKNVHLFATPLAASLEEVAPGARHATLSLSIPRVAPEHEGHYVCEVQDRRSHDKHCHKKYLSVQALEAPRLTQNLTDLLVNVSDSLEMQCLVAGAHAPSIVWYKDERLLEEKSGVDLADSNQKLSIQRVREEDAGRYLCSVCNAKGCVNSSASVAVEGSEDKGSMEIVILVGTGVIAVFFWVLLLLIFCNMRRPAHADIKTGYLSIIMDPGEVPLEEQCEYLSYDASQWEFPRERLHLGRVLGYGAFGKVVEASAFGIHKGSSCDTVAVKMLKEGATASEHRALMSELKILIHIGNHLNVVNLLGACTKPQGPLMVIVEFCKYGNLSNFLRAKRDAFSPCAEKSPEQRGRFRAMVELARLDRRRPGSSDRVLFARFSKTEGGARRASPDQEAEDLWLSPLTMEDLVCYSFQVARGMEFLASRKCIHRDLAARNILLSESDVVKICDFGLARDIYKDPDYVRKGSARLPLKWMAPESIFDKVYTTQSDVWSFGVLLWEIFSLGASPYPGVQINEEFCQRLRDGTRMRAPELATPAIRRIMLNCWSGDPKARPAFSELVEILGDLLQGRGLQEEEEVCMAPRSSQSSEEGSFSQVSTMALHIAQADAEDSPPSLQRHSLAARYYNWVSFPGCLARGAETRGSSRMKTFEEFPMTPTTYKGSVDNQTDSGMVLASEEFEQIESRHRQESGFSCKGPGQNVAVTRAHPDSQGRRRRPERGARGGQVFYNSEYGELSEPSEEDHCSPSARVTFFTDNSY

FYN = target: T10, FYN (Homo sapiens, UniProt P06241)
T10 construct: purchased KINOMEscan (DiscoveRx)

GCN2(Kin.Dom.2, S808G) = target: T11, GCN2(Kin.Dom.2, S808G) (Homo sapiens, UniProt Q9P2K8, S808G)
T11 construct: GCN2(Kin.Dom.2, S808G); purchased KINOMEscan (DiscoveRx)

HUNK = target: T12, HUNK (Homo sapiens, UniProt P57058)
T12 construct: DNA label (qPCR read-out); purchased KINOMEscan (DiscoveRx) ScanMAX panel

JNK2 = target: T13, JNK2 (Homo sapiens, UniProt P45984)
T13 construct: DNA label (for qPCR read-out); purchased DiscoveRx (KINOMEscan scanMAX panel)
T13 sequence (P45984 whole entry): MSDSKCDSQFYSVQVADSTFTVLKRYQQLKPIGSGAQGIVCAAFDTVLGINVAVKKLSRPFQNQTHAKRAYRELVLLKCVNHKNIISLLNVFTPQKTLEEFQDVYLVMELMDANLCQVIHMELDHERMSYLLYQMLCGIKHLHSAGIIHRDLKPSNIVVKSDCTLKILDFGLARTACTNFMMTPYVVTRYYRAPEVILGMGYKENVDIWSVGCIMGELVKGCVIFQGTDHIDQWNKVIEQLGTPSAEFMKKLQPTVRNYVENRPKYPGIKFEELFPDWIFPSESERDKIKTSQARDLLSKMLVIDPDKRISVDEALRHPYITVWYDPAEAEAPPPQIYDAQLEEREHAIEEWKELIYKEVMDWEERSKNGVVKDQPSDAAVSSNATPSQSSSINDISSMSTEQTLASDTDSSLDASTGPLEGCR

LKB1 = target: T14, LKB1 (Homo sapiens, UniProt Q15831)
T14 construct: purchased KINOMEscan (DiscoveRx) panel service

MAP3K15 = target: T15, MAP3K15 (Homo sapiens, UniProt Q6ZN16)
T15 construct: DNA label (qPCR read-out); purchased DiscoverX (KINOMEscan service)

MAPKAPK2 = MAPKAPK2 (Homo sapiens, UniProt P49137)
MKNK2 = target: T16, MKNK2 (Homo sapiens, UniProt Q9HBH9)
T16 construct: DNA label (qPCR read-out); purchased KINOMEscan scanMAX panel (DiscoveRx)

MLK1 = target: T17, MLK1 (Homo sapiens, UniProt P80192)
T17 construct: DNA label (qPCR read-out); purchased KINOMEscan scanMAX panel (DiscoveRx)

MRCKB = target: T18, MRCKB (Homo sapiens, UniProt Q9Y5S2)
T18 construct: DNA label (qPCR read-out); purchased KINOMEscan scanMAX panel (DiscoveRx)

NDR2 = target: T19, NDR2 (Homo sapiens, UniProt Q9Y2H1)
T19 construct: DNA label (for qPCR read-out); purchased KINOMEscan scanMAX panel (DiscoveRx)
T19 sequence (Q9Y2H1 whole entry): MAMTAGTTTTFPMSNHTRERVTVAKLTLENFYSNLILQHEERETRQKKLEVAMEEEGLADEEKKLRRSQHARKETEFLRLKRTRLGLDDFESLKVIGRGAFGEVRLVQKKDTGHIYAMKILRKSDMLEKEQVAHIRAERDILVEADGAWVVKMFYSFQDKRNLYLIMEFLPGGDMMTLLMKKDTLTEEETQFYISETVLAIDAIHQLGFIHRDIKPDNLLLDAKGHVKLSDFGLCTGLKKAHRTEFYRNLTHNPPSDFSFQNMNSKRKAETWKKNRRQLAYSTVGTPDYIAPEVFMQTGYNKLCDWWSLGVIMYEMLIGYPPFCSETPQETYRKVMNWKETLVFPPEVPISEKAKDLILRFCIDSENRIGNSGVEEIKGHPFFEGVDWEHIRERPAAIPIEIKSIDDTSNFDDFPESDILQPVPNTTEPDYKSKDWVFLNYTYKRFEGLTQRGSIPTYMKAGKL

NEK7 = target: T20, NEK7 (Homo sapiens, UniProt Q8TDX7)
T20 construct: DNA label (qPCR read-out); purchased KINOMEscan (ScanMAX panel service)

p38-delta = target: T21, p38-delta (Homo sapiens, UniProt O15264)
T21 construct: purchased DiscoverX (KINOMEscan service)

PIK3C2B = target: T22, PIK3C2B (Homo sapiens, UniProt O00750)
T22 construct: DNA label (for qPCR read-out); purchased DiscoveRx (KINOMEscan scanMAX service)

PIK3CA = target: T23, PIK3CA (Homo sapiens, UniProt P42336)
T23 construct: DNA label (for qPCR read-out); purchased DiscoveRx (KINOMEscan scanMAX service)
T23 sequence (P42336 whole entry): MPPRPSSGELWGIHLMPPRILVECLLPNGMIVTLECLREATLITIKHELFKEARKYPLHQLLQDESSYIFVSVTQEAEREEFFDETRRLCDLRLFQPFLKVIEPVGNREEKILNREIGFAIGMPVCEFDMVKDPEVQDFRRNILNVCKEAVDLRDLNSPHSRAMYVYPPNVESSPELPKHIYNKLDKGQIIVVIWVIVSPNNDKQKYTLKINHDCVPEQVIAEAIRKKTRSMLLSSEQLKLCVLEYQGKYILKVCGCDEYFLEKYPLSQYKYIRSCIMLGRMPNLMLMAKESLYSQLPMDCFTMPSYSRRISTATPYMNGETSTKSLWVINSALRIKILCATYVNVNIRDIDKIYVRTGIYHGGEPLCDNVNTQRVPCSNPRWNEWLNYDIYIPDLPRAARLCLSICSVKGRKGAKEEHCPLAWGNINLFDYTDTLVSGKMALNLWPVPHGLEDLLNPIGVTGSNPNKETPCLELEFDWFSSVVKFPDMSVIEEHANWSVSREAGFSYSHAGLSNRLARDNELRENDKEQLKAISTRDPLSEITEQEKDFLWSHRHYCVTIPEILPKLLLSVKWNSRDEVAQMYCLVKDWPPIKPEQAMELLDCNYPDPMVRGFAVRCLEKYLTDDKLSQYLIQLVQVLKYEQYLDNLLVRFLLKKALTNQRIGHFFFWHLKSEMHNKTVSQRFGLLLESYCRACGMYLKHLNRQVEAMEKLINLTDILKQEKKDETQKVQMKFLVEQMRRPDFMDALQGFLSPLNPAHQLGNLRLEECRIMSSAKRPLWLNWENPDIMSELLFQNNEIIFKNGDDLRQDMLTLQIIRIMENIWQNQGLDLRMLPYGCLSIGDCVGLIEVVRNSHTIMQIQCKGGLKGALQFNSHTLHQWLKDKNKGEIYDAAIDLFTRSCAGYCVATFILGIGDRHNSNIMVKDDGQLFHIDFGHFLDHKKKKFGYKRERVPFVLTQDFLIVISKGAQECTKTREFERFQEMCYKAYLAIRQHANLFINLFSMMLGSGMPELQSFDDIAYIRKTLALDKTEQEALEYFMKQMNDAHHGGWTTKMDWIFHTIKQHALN

PIK3CA(E542K) = target: T24, PIK3CA(E542K) (Homo sapiens, UniProt P42336, E542K)
T24 construct: DNA label; purchased DiscoveRx (KINOMEscan scanMAX panel)
T24 sequence (P42336 whole entry E542K): as the sequence (P42336 whole entry) above, with E542K counted along it

PLK3 = target: T25, PLK3 (Homo sapiens, UniProt Q9H4B4)
T25 construct: purchased DiscoveRx (KINOMEscan scanMAX panel)

PRKCH = target: T26, PRKCH (Homo sapiens, UniProt P24723)
T26 construct: purchased DiscoveRx (KINOMEscan scanMAX panel)

S6K1 = target: T27, S6K1 (Homo sapiens, UniProt P23443)
T27 construct: purchased DiscoveRx (KINOMEscan scanMAX panel)

SBK1 = target: T28, SBK1 (Homo sapiens, UniProt Q52WX2)
T28 construct: purchased DiscoveRx (KINOMEscan scanMAX panel)

SNARK = target: T29, SNARK (Homo sapiens, UniProt Q9H093)
T29 construct: purchased KINOMEscan (DiscoveRx)

TBK1 = target: T30, TBK1 (Homo sapiens, UniProt Q9UHD2)
T30 construct: DNA label (for qPCR read-out); purchased DiscoveRx (KINOMEscan scanMAX panel, contract assay)

TEC = target: T31, TEC (Homo sapiens, UniProt P42680)
T31 construct: DNA label (for qPCR read-out); purchased DiscoveRx (KINOMEscan scanMAX panel, contract assay)

TNK1 = target: T32, TNK1 (Homo sapiens, UniProt Q13470)
T32 construct: DNA label (qPCR read-out); purchased KINOMEscan (DiscoveRx) ScanMAX panel
T32 sequence (Q13470 whole entry): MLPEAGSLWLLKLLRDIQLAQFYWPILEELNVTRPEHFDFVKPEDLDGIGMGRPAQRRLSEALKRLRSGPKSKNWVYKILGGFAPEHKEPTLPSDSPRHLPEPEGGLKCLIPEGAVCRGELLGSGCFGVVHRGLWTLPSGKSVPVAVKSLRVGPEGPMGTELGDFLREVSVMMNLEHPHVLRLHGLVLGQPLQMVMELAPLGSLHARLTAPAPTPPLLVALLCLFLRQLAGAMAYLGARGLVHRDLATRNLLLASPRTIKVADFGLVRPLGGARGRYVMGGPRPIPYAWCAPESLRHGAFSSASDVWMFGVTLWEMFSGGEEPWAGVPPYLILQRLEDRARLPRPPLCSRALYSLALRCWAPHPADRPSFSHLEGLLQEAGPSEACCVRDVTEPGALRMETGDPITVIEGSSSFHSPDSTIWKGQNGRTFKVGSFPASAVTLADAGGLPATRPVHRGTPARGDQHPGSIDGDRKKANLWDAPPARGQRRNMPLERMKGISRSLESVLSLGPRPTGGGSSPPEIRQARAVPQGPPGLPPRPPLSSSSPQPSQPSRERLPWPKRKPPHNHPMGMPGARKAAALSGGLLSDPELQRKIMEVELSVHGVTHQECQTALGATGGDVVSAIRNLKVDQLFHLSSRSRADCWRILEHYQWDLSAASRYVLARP

TTK = target: T33, TTK (Homo sapiens, UniProt P33981)
T33 construct: DNA label (for qPCR read-out); purchased DiscoveRx (KINOMEscan scanMAX panel)

WEE2 = target: T34, WEE2 (Homo sapiens, UniProt P0C1S8)
T34 construct: purchased KINOMEscan (DiscoveRx) panel service

[2H]C([2H])([2H])N(C(=O)c1ccc(N2CCCN(c3ccnc4sc(C(N)=O)c(N)c34)CC2)cc1)C([2H])([2H])[2H] [15u_D6, 3-amino-4-(4-(4-(bis(methyl-d3)carbamoyl)phenyl)-1,4-diazepan-1-yl)thieno[2,3-b]pyridine-2-carboxamide]
% Ctrl [1]: 77 % Ctrl | % Ctrl (BRK): 99 % Ctrl | % Ctrl (CHEK2): 92 % Ctrl | % Ctrl (CSK): 92 % Ctrl | % Ctrl (CSNK2A1): 59 % Ctrl | % Ctrl (EGFR(E746-A750del)): 100 % Ctrl | % Ctrl (EIF2AK1): 78 % Ctrl | % Ctrl (EPHA2): 100 % Ctrl | % Ctrl (EPHB6): 89 % Ctrl | % Ctrl (FLT4): 98 % Ctrl | % Ctrl (FYN): 97 % Ctrl | % Ctrl (GCN2(Kin.Dom.2, S808G)): 88 % Ctrl | % Ctrl (HUNK): 100 % Ctrl | % Ctrl (JNK2): 54 % Ctrl | % Ctrl (LKB1): 87 % Ctrl | % Ctrl (MAP3K15): 92 % Ctrl | % Ctrl (MAPKAPK2): 99 % Ctrl | % Ctrl (MKNK2): 69 % Ctrl | % Ctrl (MLK1): 92 % Ctrl | % Ctrl (MRCKB): 100 % Ctrl | % Ctrl (NDR2): 36 % Ctrl | % Ctrl (NEK7): 86 % Ctrl | % Ctrl (p38-delta): 97 % Ctrl | % Ctrl (PIK3C2B): 87 % Ctrl | % Ctrl (PIK3CA): 79 % Ctrl | % Ctrl (PIK3CA(E542K)): 74 % Ctrl | % Ctrl (PLK3): 90 % Ctrl | % Ctrl (PRKCH): 96 % Ctrl | % Ctrl (S6K1): 89 % Ctrl | % Ctrl (SBK1): 83 % Ctrl | % Ctrl (SNARK): 78 % Ctrl | % Ctrl (TBK1): 97 % Ctrl | % Ctrl (TEC): 81 % Ctrl | % Ctrl (TNK1): 100 % Ctrl | % Ctrl (TTK): 80 % Ctrl | % Ctrl (WEE2): 88 % Ctrl

CN(C)C(=O)c1ccc(N2CCCN(c3ccnc4sc(C(N)=O)c(N)c34)CC2)cc1 [15u, 3-amino-4-(4-(4-(dimethylcarbamoyl)phenyl)-1,4-diazepan-1-yl)thieno[2,3-b]pyridine-2-carboxamide]
% Ctrl [1]: 94 % Ctrl | % Ctrl (BRK): 100 % Ctrl | % Ctrl (CHEK2): 92 % Ctrl | % Ctrl (CSK): 86 % Ctrl | % Ctrl (CSNK2A1): 100 % Ctrl | % Ctrl (EGFR(E746-A750del)): 100 % Ctrl | % Ctrl (EIF2AK1): 93 % Ctrl | % Ctrl (EPHA2): 95 % Ctrl | % Ctrl (EPHB6): 95 % Ctrl | % Ctrl (FLT4): 92 % Ctrl | % Ctrl (FYN): 99 % Ctrl | % Ctrl (GCN2(Kin.Dom.2, S808G)): 73 % Ctrl | % Ctrl (HUNK): 99 % Ctrl | % Ctrl (JNK2): 99 % Ctrl | % Ctrl (LKB1): 100 % Ctrl | % Ctrl (MAP3K15): 97 % Ctrl | % Ctrl (MAPKAPK2): 91 % Ctrl | % Ctrl (MKNK2): 83 % Ctrl | % Ctrl (MLK1): 95 % Ctrl | % Ctrl (MRCKB): 96 % Ctrl | % Ctrl (NDR2): 99 % Ctrl | % Ctrl (NEK7): 100 % Ctrl | % Ctrl (p38-delta): 96 % Ctrl | % Ctrl (PIK3C2B): 89 % Ctrl | % Ctrl (PIK3CA): 100 % Ctrl | % Ctrl (PIK3CA(E542K)): 92 % Ctrl | % Ctrl (PLK3): 86 % Ctrl | % Ctrl (PRKCH): 80 % Ctrl | % Ctrl (S6K1): 95 % Ctrl | % Ctrl (SBK1): 100 % Ctrl | % Ctrl (SNARK): 100 % Ctrl | % Ctrl (TBK1): 99 % Ctrl | % Ctrl (TEC): 91 % Ctrl | % Ctrl (TNK1): 100 % Ctrl | % Ctrl (TTK): 83 % Ctrl | % Ctrl (WEE2): 97 % Ctrl
